Experimental data published in publication PMC4761938 (2016).
One block for each compound: values may come before it.

Experiments:
Assay in all cases: graphene oxide fluorescence desorption assay
[1] = tested on: OA-27 (DNA, aptamer) CAGCTCAGAAGCTTGATCCTATTTGACCATGTCGAGGGAGACGCGCAGTCGCTACCACCTGACTCGAAGTCGTGCATCTG; settings: 150 mM Na+, 2 mM Mg2+, binding buffer 50 mM Tris, pH 7.4; for binding: 1 μM compound tested, 150 nM aptamer
[2] = tested on: OA-09 (DNA, aptamer) CAGCTCAGAAGCTTGATCCTTAGCACACAACCCTTTGATTGGGATATCTCATCCCTCGGACTCGAAGTCGTGCATCTG; settings: 150 mM Na+, 2 mM Mg2+; binding buffer 50 mM Tris, pH 7.4; 1 μM OA, 5–200 nM aptamer
[3] = tested on: OA-22 (DNA, aptamer) CAGCTCAGAAGCTTGATCCTGGCCCCGATATGATTGCTATCATTCGCATCTGCTTCACTTGACTCGAAGTCGTGCATCTG; settings: 150 mM Na+, 2 mM Mg2+; binding buffer 50 mM Tris, pH 7.4; 1 μM OA, 5–200 nM aptamer
[4] = tested on: OA-17 (DNA, aptamer) CAGCTCAGAAGCTTGATCCTTTCCCCAAACTGTTGCAACCTCTGCTTTCTTTCGCTATATGACTCGAAGTCGTGCATCTG; settings: 150 mM Na+, 2 mM Mg2+, binding buffer 50 mM Tris, pH 7.4; for binding: 1 μM compound tested, 150 nM aptamer
[5] = tested on: OA27-1 (DNA, aptamer) ATTTGACCATGTCGAGGGAGACGCGCAGTCGCTACCACCT; settings: 150 mM Na+, 2 mM Mg2+; binding buffer 50 mM Tris, pH 7.4; FAM-aptamer, GO separation
[6] = tested on: OA-01 (DNA, aptamer) CAGCTCAGAAGCTTGATCCTGCACACGAGTTACGCCCCATCGTTGTCCTTTCCCTCACGTGACTCGAAGTCGTGCATCTG; settings: 150 mM Na+, 2 mM Mg2+; binding buffer 50 mM Tris, pH 7.4; 1 μM OA, 5–200 nM aptamer
[7] = tested on: OA-21 (DNA, aptamer) CAGCTCAGAAGCTTGATCCTGGATGACCGTTGCAAGCGATCCATTGTTGTTTGATCATGTGACTCGAAGTCGTGCATCTG; settings: 150 mM Na+, 2 mM Mg2+; binding buffer 50 mM Tris, pH 7.4; 1 μM OA, 5–200 nM aptamer
[8] = tested on: OA-14 (DNA, aptamer) CAGCTCAGAAGCTTGATCCTATGCTTCGTGGGACAAGAGTTGACACATCGTCGTTAGGTTGACTCGAAGTCGTGCATCTG; settings: 150 mM Na+, 2 mM Mg2+; binding buffer 50 mM Tris, pH 7.4; 1 μM OA, 5–200 nM aptamer
[9] = tested on: OA-08 (DNA, aptamer) CAGCTCAGAAGCTTGATCCTAGCCCGCCAACCTACATCATCTACACTTCGTTTTAACCTTGACTCGAAGTCGTGCATCTG; settings: 150 mM Na+, 2 mM Mg2+, binding buffer 50 mM Tris, pH 7.4; for binding: 1 μM compound tested, 150 nM aptamer

binding [1]: no
Structure (SMILES): C/C(=C/C=C/[C@@H](C)C(=O)O)[C@H]1CN[C@H](C(=O)O)[C@H]1CC(=O)O

Kd [2]: 127 ± 39 nM | Kd [3]: 70 ± 16 nM | Kd ([4]; 1 μM OA, 5–200 nM aptamer): 79 ± 20 nM | Kd [5]: 40 nM | Kd [6]: 125 ± 22 nM | Kd [7]: 118 ± 18 nM | Kd [8]: 1772 ± 543 nM | Kd ([9]; 1 μM OA, 5–200 nM aptamer): 88 ± 30 nM | Kd ([1]; 1 μM OA, 5–200 nM aptamer): 42 ± 4 nM
Structure (SMILES): C=C1[C@@H](O)[C@@H]2O[C@]3(CC[C@H](/C=C/[C@@H](C)[C@@H]4CC(C)=C[C@@]5(O[C@H](C[C@@](C)(O)C(=O)O)CC[C@H]5O)O4)O3)CC[C@H]2O[C@@H]1[C@@H](O)C[C@H](C)[C@H]1O[C@@]2(CCCCO2)CC[C@H]1C

binding [4]: yes | binding [9]: yes | binding [1]: no
Structure (SMILES): C=C1[C@@H](O)[C@@H]2O[C@]3(CC[C@H](/C=C/[C@@H](C)[C@@H]4CC(C)=C[C@@]5(O[C@H](C[C@@](C)(O)C(=O)O)CC[C@H]5O)O4)O3)CC[C@H]2O[C@@H]1[C@@H](O)C[C@H](C)[C@H]1O[C@@]2(CC[C@H]1C)OCCC[C@H]2C

binding [4]: yes | binding [9]: yes | binding [1]: no
Structure (SMILES): C=C1[C@@H](O)[C@@H]2O[C@]3(CC[C@H](/C=C/[C@@H](C)[C@@H]4CC(C)=C[C@@]5(O[C@H](C[C@@](C)(O)C(=O)O)CC[C@H]5O)O4)O3)CC[C@H]2O[C@@H]1[C@@H](O)C[C@H](C)[C@@H]1CCC[C@@]2(OCCC[C@H]2C)O1
